# Key:
# CK-p25 Tg mice [1] = assay: Cortical (Hoechst) and neuronal (NeuN) layer thickness in CK-p25 Tg mice; format: in vivo, mouse; conditions: visual cortex; for thickness of V1-neuronal layer: NeuN
# Protocol: A study was conducted to examine the effect of gamma exposure and/or administration in accordance with some embodiments on DNA damage and neuronal loss in the visual cortex of a subject. For the study, an inducible mouse model of p25 accumulation (i.e., a creatine kinase carboxyl-terminal fragment p25 Tg mouse (CK-p25 Tg mouse)) was used.
# A study was conducted to compare groups of mice under different treatment regimens. FIG. 84 is a diagram of the groups including CK-control mice 8400, untreated CK-p25 Tg mice 8402, CK-p25 Tg mice treated with memantine (10 mg/kg daily) 8404, CK-p25 Tg mice exposed to the 40-Hz light flicker (one hour daily for 6 weeks) in accordance with some embodiments 8406, and CK-p25 Tg mice treated with memantine and also exposed to the 40-Hz light flicker 8408. Memantine is a medication used with limited success to treat severe AD by blocking NMDA receptors, thereby acting on the glutamatergic system.
# Cortical layer loss was gauged using nuclear staining with Hoechst labels (i.e., blue fluorescent dyes used to stain DNA). Neuronal layer loss was gauged using NeuN, a neuronal nuclear antigen that is commonly used as a biomarker for neurons. FIG. 89 is a bar graph depicting average thickness of the V1-cortical layer in each group, and FIG. 90 is a bar graph depicting average thickness of the V1-NeuN-positive cell layer in each group.
# CK-p25 Tg mice [2] = assay: γH2AX-positive cells (DNA damage) in CK-p25 Tg mice; format: in vivo, mouse
# Protocol: A study was conducted to examine the effect of gamma exposure and/or administration in accordance with some embodiments on DNA damage and neuronal loss in the visual cortex of a subject. For the study, an inducible mouse model of p25 accumulation (i.e., a creatine kinase carboxyl-terminal fragment p25 Tg mouse (CK-p25 Tg mouse)) was used. […] A study was conducted to compare groups of mice under different treatment regimens. FIG. 84 is a diagram of the groups including CK-control mice 8400, untreated CK-p25 Tg mice 8402, CK-p25 Tg mice treated with memantine (10 mg/kg daily) 8404, CK-p25 Tg mice exposed to the 40-Hz light flicker (one hour daily for 6 weeks) in accordance with some embodiments 8406, and CK-p25 Tg mice treated with memantine and also exposed to the 40-Hz light flicker 8408. Memantine is a medication used with limited success to treat severe AD by blocking NMDA receptors, thereby acting on the glutamatergic system. DNA double strand breaks (DSB) are one example of DNA damage in eukaryotic cells, causing genomic instability, leading to tumorigenesis and possibly accelerated aging. Phosphorylated histone H2AX (γH2AX) was used as a biomarker of cellular response to DSB. FIG. 99 is bar graph comparing the amount of γH2AX-positive cells in CK-control mice, untreated CK-p25 Tg mice, CK-p25 Tg mice treated with memantine, CK-p25 Tg mice exposed to the 40-Hz light flicker in accordance with some embodiments, and CK-p25 Tg mice treated with both memantine and the 40-Hz light flicker. Cells positive for γH2AX were almost non-existent in CK-control mice, but very high in untreated CK-p25 Tg mice, indicating high amounts of DSB and other DNA damage. Treatment with memantine reduced the amount of γH2AX-positive cells in CK-p25 Tg mice compared to the untreated group. […] Thus, FIG. 99 illustrates how 40-Hz visual flicker treatment in accordance with some embodiments can reduce DNA damage in the visual cortex.
# AD patients = conditions: AD subjects; cited from earlier work
# [3] = memantine + 40-Hz light flicker
# [4] = memantine alone, compared to untreated CK-p25 Tg
compound,measurement,setting,value
CC12CC3CC(C)(C1)CC(N)(C3)C2 [memantine],thickness of V1-neuronal layer,CK-p25 Tg mice [1]; [3],691 ± 20 µm
same,thickness of V1-neuronal layer,CK-p25 Tg mice [1]; memantine alone,660 ± 7 µm
same,thickness of V1-cortical layer,CK-p25 Tg mice [1]; [3],821 ± 22 µm
same,thickness of V1-cortical layer,CK-p25 Tg mice [1]; memantine alone,788 ± 9 µm
same,number of γH2AX-positive cells in hippocampus,CK-p25 Tg mice [2]; [3],significantly increased
same,number of γH2AX-positive cells in insular cortex,CK-p25 Tg mice [2]; [3],significantly increased
same,number of γH2AX-positive cells in somatosensory cortex,CK-p25 Tg mice [2]; [3],significantly increased
same,number of γH2AX-positive cells in visual cortex,CK-p25 Tg mice [2]; [3],significantly increased
same,amount of γH2AX-positive cells in hippocampus,CK-p25 Tg mice [2]; [4],reduced
same,amount of γH2AX-positive cells in insular cortex,CK-p25 Tg mice [2]; [4],reduced
same,amount of γH2AX-positive cells in somatosensory cortex,CK-p25 Tg mice [2]; [4],reduced
same,amount of γH2AX-positive cells in visual cortex,CK-p25 Tg mice [2]; [4],reduced
same,clinical outcome on cognition,AD patients,only mild cognitive benefits
